Earlier results as cited in patent US20120010144A1, “Peg-albumin composition having at least one protected thiol region as a platform for medications” (priority 2009, published 2012).

details: soluble in water (hydrophilic) or in lipid (hydrophobic)

Solubility	Compound
Water	O=c1[nH]c(=O)c2[nH]c(=O)[nH]c2[nH]1 [Uric Acid]
Water	N[C@@H](CCC(=O)N[C@@H](CS)C(=O)NCC(=O)O)C(=O)O [Glutathione]
Lipid	Carotenes
Lipid	Cc1c(C)c2c(c(C)c1O)CC[C@@](C)(CCC[C@H](C)CCC[C@H](C)CCCC(C)C)O2 [A-Tocopherol]

Compound	Solubility
COc1c(O)c(C)c(C/C=C(\C)CC/C=C(\C)CC/C=C(\C)CC/C=C(\C)CC/C=C(\C)CC/C=C(\C)CC/C=C(\C)CC/C=C(\C)CC/C=C(\C)CCC=C(C)C)c(O)c1OC [Ubiquinol]	Lipid
